# Assay: Relationship between pH and decrease of radiochemical purity (storage at 25° C., TLC analysis)
# Assay type: physicochemical
# Settings: pH value not more than 5.9, no pharmaceutical additives or buffers that prevent radiolysis
# Description: Radioactivity of the obtained stock solution of anti-[^18F]-FACBC was measured, and then the stock solution was diluted with a physiological saline solution so as to have a radioactive concentration of about 510 MBq/mL at the time when experiment was initiated (0 hour in Table 9). 2.23 mL of this solution was aliquoted in a vial of 5 mL in volume, and a predetermined amount of a predetermined solution indicated in Table 8 was added thereto, to obtain a sample solution. The radioactive concentration of the sample solutions at the end of preparation was […].
# The sample solution was stored in an electric thermostatic chamber adjusted to 25° C., and was then subjected to TLC analysis which was performed on the following conditions at the time of initiation of the experiment (0 hour) and 8.5 hours after the initiation of the experiment. Values of radiochemical purity were calculated in accordance with the following equation (1). Measurement of the radiochemical purity was repeated three times for each sample solution.
# Mobile phase: acetonitrile/water/100% acetic acid=4/1/1
# TLC plate: Silica Gel 60F254 (trade name, thickness: 0.25 mm, manufactured by Merck & Co., Inc.)
# TLC scanner: Rita Star (manufactured by Raytest)
# Number of analysis: Three times
row,stability against radiolysis,SMILES
1,stability thereof is maintained,"NC1(C(=O)O)CC([18F])C1 (centres unmarked) [[^18F]FACBC, 3-[^18F]fluoro-1-aminocyclobutanecarboxylic acid]"

# Assay: not given
# Settings: Japanese Pharmaceutical Excipients Directory 2000; cited from earlier work
row,SMILES,maximum dose in case of intravenous administration
1,O=C(CO)[C@@H](O)[C@H](O)[C@H](O)CO [fructose],0.9 g
2,O=C[C@H](O)[C@@H](O)[C@H](O)[C@H](O)CO [glucose],8 g
3,OC[C@H]1O[C@@H](O[C@H]2[C@H](O)[C@@H](O)C(O)O[C@@H]2CO)[C@H](O)[C@@H](O)[C@H]1O (some centres unmarked) [lactose],1.25 g
4,OC[C@@H](O)[C@@H](O)[C@H](O)[C@H](O)CO [mannitol],1.2 g
5,OC[C@H]1O[C@H](O[C@H]2[C@H](O)[C@@H](O)[C@H](O)O[C@@H]2CO)[C@H](O)[C@@H](O)[C@@H]1O [martose],10 g
6,OC[C@@H](O)[C@@H](O)[C@H](O)[C@@H](O)CO [sorbitol],1.5 g
7,OC[C@@H](O)[C@H](O)[C@@H](O)CO [xylitol],0.2 g

# From US8343459B2, “Method for production of radiation diagnostic imaging agent” (Nihon Medi-Physics Co., Ltd., priority 2007, dated 2013)
